Source: patent publication US20220041681A1 (MEDIMMUNE LIMITED, priority 2016, published 2022)

System: diet induced obesity (DIO) mouse model
Assay: Diet induced obesity (DIO) mouse model, study B
Assay type: in vivo
Settings: for FGF 21 / HOMA / Hepatic TG / Plasma Cholesterol / Plasma NEFA / Plasma TG: day 14; for Glucose / Insulin: day 14, 4-hour fasting
Method: The body weight of the animals was monitored daily throughout the dosing period. At day 14, blood samples for the measurement of plasma glucose and insulin from conscious mice were obtained after a 4-hour fasting period. Mice were then anaesthetized using isoflourane and terminal blood was collected from the capillary bed behind the eye. The following parameters were measured: blood chemistry measurements of triglycerides, total cholesterol, non-esterified fatty acids (NEFA), beta-hydroxybutyrate and fibroblast growth factor 21 (FGF21) (Table 16 and Table 17 below).

Q: `CCCCCCCCCCCCCCCC(=O)N[C@@H](CCC(=O)NCCCC[C@H](NC(=O)[C@H](CC(=O)O)NC(=O)[C@H](CO)NC(=O)C(NC(=O)[C@H](Cc1ccccc1)NC(=O)C(NC(=O)CNC(=O)[C@H](CCC(N)=O)NC(=O)[C@H](CO)NC(=O)[C@@H](N)Cc1cnc[nH]1)[C@@H](C)O)[C@@H](C)O)C(=O)N[C@@H](CO)C(=O)N[C@@H](CCC(=O)O)C(=O)N[C@@H](Cc1ccc(O)cc1)C(=O)N[C@@H](CC(C)C)C(=O)N[C@@H](CC(=O)O)C(=O)N[C@@H](CO)C(=O)N[C@@H](CCC(=O)O)C(=O)N[C@@H](CCCNC(=N)N)C(=O)N[C@@H](C)C(=O)N[C@@H](CCCNC(=N)N)C(=O)N[C@@H](CC(=O)O)C(=O)N[C@@H](Cc1ccccc1)C(=O)N[C@H](C(=O)N[C@@H](C)C(=O)N[C@@H](Cc1c[nH]c2ccccc12)C(=O)N[C@@H](CC(C)C)C(=O)N[C@@H](CCC(=O)O)C(=O)N[C@@H](C)C(=O)NCC(=O)NCC(=O)O)C(C)C)C(=O)O` (stereo partly shown) [Peptide G933] was tested. Which “BW day 14 (% change of vehicle mean)” value (5 nmol/kg sc twice daily for 14 days) did it give?
A: −11%

Q: And the “FGF 21” value (5 nmol/kg sc twice daily)?
A: 2682 pg/mL

Q: What about the HOMA (5 nmol/kg sc twice daily) of the same molecule?
A: 3.31

Q: What about the “Hepatic TG” value (5 nmol/kg sc twice daily) of the same molecule?
A: 19.3 g TG/100 g tissue

Q: What about the “Plasma Cholesterol” value (5 nmol/kg sc twice daily) of the same molecule?
A: 2.88 mM

Q: What about the “Plasma NEFA” value (5 nmol/kg sc twice daily) of the same molecule?
A: 0.28 mM

Q: What about the “Plasma TG” value (5 nmol/kg sc twice daily) of the same molecule?
A: 0.89 mM

Q: And the Glucose (5 nmol/kg sc twice daily)?
A: 6.2 mM

Q: What about the Insulin (5 nmol/kg sc twice daily) of the same molecule?
A: 0.53 nM

Q: What about the “BW day 14 (% change of vehicle mean)” value (10 nmol/kg sc twice daily for 14 days) of the same molecule?
A: −19%

Q: What about the “FGF 21” value (10 nmol/kg sc twice daily) of the same molecule?
A: 4459 pg/mL

Q: And the HOMA (10 nmol/kg sc twice daily)?
A: 1.98

Q: And the “Hepatic TG” value (10 nmol/kg sc twice daily)?
A: 14.7 g TG/100 g tissue

Q: What about the “Plasma Cholesterol” value (10 nmol/kg sc twice daily) of the same molecule?
A: 2.32 mM

Q: What about the “Plasma NEFA” value (10 nmol/kg sc twice daily) of the same molecule?
A: 0.27 mM

Q: What about the “Plasma TG” value (10 nmol/kg sc twice daily) of the same molecule?
A: 0.16 mM

Q: What about the Glucose (10 nmol/kg sc twice daily) of the same molecule?
A: 7.2 mM

Q: And the Insulin (10 nmol/kg sc twice daily)?
A: 0.27 nM

Q: What about the “body weight over the 14 day dosing period” value (study B, in words) of the same molecule?
A: dose dependent and continuous weight loss
